The record followed here is patent publication US20090088461A1, “Methods of Treating or Preventing Cardiac Disease Associated With a High Fat Diet” (Synvista Therapeutics, Inc., priority 2007, published 2009).

“And” between values parts separate entries of the source, which are not always exact repeats. Equal entries are not always repeated.

This experiment deals with T1, AGE-BSA previously crosslinked to the collagen (Bos taurus, UniProt P02769).
T1 construct: Bovine Serum Albumin (Type V), (BSA) Calbiochem; purchased Calbiochem (BSA Type V); Collaborative Biomedical Products (Biocoat collagen plates)
Briefly: Cross-Link Breaking Assay (sandwich enzyme immunoassay). In kind it is biochemical. The conditions noted are these: for Breaking Anti-AGE: anti-AGE antibody; for Breaking Anti-BSA: anti-BSA antibody. On the procedure: The present invention also involves a novel sandwich enzyme immunoassay used to ascertain the ability of test compounds to “break” or reverse already formed advanced glycosylation endproducts by detecting the breaking of AGE (Advanced glycosylation endproduct) moieties from AGE-crosslinked protein. This assay comprises:
a) incubation of AGE-modified bovine serum albumin (AGE BSA) on collagen-coated wells of microtiter plates for a period of 2-6 hours' at a temperature of 37° C.
b) washing of the wells with PBS-Tween;
c) application of the test compounds to the washed wells of step b;
d) incubation of the test compounds applied to the washed wells for an additional 12-24 hours at a temperature of about 37° C.; and
e) detection of the AGE-breaking using an antibody raised against AGE-ribonuclease or cross-link breaking with an antibody against BSA.
In order to ascertain the ability of the compounds of the instant invention to “break” or reverse already formed advanced glycosylation endproducts, a novel sandwich enzyme immunoassay was developed which detects breaking of AGE (Advanced glycosylation endproduct) moieties from AGE-crosslinked protein. The assay utilizes collagen-coated 96 well microtiter plates that are obtained commercially. […] Following an incubation period of 16 hours (37° C.) cross-link-breaking is detected using an antibody raised against AGE-ribonuclease or with an antibody against BSA. […] Details of the assay are as follows:
1. AGE-BSA stock solutions were prepared as follows. Sodium phosphate buffer (0.4 M) was prepared by dissolving 6 grams of monobasic sodium phosphate in 100 ml of distilled water, 7 grams of dibasic sodium phosphate (0.4 M) in 100 ml of distilled water and adjusting the pH of the dibasic solution to 7.4 with the monobasic solution. Sodium azide (0.02 grams) was added per 100 ml volume to inhibit bacterial growth. The BSA solution was prepared as follows: 400 mg of Type V BSA (bovine serum albumin) was added for each ml of sodium phosphate buffer (above). A 400 mM glucose solution was prepared by dissolving 7.2 grams of dextrose in 100 ml of sodium phosphate buffer (above). The BSA and glucose solutions were mixed 1:1 and incubated at 37° C. for 12 weeks. The pH of the incubation mixture was monitored weekly and adjusted to pH 7.4 if necessary. After 12 weeks, the AGE-BSA solution was dialyzed against PBS for 48 hours with four buffer changes, each at a 1:500 ratio of solution to dialysis buffer. Protein concentration was determined by the micro-Lowry method. The AGE-BSA stock solution was aliquoted and stored at −20° C.
2. Working solutions for crosslinking and breaking studies were prepared as follows. Test compounds were dissolved in PBS and the pH was adjusted to pH 7.4 if necessary. AGE-BSA stock solution was diluted in PBS to measure maximum crosslinking and in the inhibitor solution for testing inhibitory activity of compounds. The concentration of AGE-BSA necessary to achieve the optimum sensitivity was determined by initial titration of each lot of AGE-BSA.
3. Wash buffer (“PBS-Tween”) was, prepared as follows. PBS was prepared by dissolving the following salts in one liter of distilled water: NaCl, 8 grams; KCl, 0.2 gram, KH2PO4. […] Tween-20 was added to a final concentration of 0.05% (vol/vol).
4. Substrates for detection of secondary antibody binding were prepared by diluting the HRP substrate buffer 1:10 in distilled water and mixing with ABTS chromogen 1:50 just prior to use.
1. Biocoat plates were blocked with 300 μl of “Superbloc”. Plates were blocked for one hour at room temperature and were washed with PBS-Tween three times with the Dynatech platewasher before addition of test reagents.
2. Each experiment was set up in the following manner. The first three wells of the Biocoat plate were used for the reagent blank. Fifty microliters of solutions AGE-BSA were added to test wells in triplicate and only PBS in blank wells.

T1 sequence (P02769 25-607): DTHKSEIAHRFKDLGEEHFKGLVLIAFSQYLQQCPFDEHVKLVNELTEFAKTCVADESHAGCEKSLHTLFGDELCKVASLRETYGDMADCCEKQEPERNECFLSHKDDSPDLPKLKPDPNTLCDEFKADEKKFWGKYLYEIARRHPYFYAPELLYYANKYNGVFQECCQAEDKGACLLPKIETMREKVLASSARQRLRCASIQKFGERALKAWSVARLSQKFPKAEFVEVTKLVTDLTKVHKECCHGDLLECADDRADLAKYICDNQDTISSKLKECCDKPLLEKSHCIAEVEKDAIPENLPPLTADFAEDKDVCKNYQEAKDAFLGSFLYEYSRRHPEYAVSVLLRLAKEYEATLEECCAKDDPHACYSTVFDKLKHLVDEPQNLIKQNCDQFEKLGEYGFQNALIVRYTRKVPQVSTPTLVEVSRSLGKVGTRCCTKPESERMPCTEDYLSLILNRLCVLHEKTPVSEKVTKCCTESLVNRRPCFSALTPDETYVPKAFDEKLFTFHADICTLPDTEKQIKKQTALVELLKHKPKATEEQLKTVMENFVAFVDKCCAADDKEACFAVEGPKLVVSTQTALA
T1 sequence (P02454 152-1207 partner limits assumed): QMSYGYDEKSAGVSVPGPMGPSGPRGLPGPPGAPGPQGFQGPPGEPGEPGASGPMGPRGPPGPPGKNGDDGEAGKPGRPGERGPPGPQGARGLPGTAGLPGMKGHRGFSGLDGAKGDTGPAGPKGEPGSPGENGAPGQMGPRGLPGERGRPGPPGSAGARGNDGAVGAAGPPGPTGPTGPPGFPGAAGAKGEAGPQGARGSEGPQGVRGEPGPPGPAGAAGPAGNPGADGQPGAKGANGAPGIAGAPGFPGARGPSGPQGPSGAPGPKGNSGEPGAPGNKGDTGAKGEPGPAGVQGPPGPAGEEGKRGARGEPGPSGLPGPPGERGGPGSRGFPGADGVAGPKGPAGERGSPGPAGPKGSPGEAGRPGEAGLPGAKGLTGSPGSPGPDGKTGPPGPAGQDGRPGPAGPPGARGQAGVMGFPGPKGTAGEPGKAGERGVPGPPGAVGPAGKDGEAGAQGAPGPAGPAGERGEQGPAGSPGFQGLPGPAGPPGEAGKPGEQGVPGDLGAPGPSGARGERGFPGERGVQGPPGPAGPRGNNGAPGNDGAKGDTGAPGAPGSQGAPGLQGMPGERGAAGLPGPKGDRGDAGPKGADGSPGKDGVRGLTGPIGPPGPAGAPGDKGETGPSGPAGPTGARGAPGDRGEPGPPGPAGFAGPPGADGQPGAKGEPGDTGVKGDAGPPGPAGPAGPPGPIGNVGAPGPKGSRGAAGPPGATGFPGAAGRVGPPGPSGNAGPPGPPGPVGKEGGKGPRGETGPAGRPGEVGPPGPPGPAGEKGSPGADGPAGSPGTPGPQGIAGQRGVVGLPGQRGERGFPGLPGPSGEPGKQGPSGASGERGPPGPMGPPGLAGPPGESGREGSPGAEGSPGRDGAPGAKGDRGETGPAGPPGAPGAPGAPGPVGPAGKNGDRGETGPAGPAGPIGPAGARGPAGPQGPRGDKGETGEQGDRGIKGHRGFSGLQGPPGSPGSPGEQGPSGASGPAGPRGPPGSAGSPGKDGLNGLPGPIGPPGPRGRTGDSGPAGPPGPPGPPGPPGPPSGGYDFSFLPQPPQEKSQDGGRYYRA
T1 sequence (P02466 86-1125 partner limits assumed): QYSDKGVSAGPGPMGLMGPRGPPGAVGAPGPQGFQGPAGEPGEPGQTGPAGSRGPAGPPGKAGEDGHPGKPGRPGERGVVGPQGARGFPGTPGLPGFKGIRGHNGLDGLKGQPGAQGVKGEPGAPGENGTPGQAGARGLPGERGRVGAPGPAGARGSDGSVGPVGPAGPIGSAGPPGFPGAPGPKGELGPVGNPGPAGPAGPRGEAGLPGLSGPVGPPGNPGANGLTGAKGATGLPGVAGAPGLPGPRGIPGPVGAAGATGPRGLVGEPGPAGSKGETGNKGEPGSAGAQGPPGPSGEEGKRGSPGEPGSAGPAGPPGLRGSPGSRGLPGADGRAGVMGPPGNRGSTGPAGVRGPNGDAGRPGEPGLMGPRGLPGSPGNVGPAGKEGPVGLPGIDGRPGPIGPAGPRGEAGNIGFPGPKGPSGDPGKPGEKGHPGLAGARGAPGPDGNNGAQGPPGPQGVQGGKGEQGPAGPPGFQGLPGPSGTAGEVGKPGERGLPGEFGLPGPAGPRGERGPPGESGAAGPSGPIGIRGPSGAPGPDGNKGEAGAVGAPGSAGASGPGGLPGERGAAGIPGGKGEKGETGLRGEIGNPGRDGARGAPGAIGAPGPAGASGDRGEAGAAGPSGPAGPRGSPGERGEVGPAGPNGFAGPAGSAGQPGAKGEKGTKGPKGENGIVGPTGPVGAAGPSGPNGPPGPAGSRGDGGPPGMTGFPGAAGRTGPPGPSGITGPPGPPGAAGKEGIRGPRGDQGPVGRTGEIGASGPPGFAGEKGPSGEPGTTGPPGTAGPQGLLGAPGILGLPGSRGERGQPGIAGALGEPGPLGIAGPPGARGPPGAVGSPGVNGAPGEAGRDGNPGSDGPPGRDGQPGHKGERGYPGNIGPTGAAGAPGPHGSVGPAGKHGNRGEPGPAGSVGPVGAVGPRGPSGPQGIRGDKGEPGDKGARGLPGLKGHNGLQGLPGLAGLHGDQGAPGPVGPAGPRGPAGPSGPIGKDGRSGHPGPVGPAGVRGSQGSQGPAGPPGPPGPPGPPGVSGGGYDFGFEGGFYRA

As for “3-(2-(3′-methoxyphenyl]-2-oxoethyl)-thiazolium bromide”, under “at 10 mM”, the “Breaking Anti-AGE” value came out at 22% and the “Breaking Anti-BSA” value was found to be 44%.
On to `Cc1cc(C)c(S(=O)(=O)[O-])c(C)c1.Nc1sc(-c2ccc3c(c2)OCCCO3)c[n+]1N` [2,3-Diamino-5-(3′,4′-trimethylenedioxyphenyl)thiazolium mesitylene sulfonate], for which, under “at 1 mM”, the “Breaking Anti-AGE” value was determined as 13% and the “Breaking Anti-BSA” value is given as 42%.
Take `Nc1sc2ccccc2[n+]1N` [2,3-diaminio-benzothiazolium mesitylenesulfonate]: under “at 30 mM”, the “Breaking Anti-AGE” value was determined as 87% and the “Breaking Anti-BSA” value was determined as 54%.
With `Nc1ccc2c(c1)sc(N)[n+]2CC(=O)c1ccc(Br)cc1.[Br-]` [2,6-diamino-3 (2-(4′-bromophenyl)-2-oxoethyl]benzothiazolium bromide], under “at 10 mM”, the “Breaking Anti-AGE” value was 27% and the “Breaking Anti-BSA” value worked out at 44%.
In the case of `Nc1ccc2c(c1)sc(N)[n+]2CC(=O)c1ccc(F)cc1.[Br-]` [2,6-diamino-3 (2-(4′-fluorophenyl-2-oxoethyl]benzothiazolium bromide], under “at 10 mM”, the “Breaking Anti-AGE” value stood at 24% and the “Breaking Anti-BSA” value is 40%.
In the same order, the values of `COc1ccc(C(=O)C[n+]2c(N)sc3cc(N)ccc32)cc1.[Br-]` [2,6-diamino-3 (2-(4′-methoxyphenyl)-2-oxoethyl]benzothiazolium bromide] are 29% and 35%.
In the same order, the values of `O=C(C[n+]1ccsc1)c1ccc2c(c1)OCCCO2.[Br-]` [3-(2-(3′,4′-trimethylenedioxyphenyl)-2-oxoethyl]-thiazolium bromide] are 17% and 18%.
With `C=Cc1sc[n+](CC(=O)c2cc(C(C)(C)C)c(O)c(C(C)(C)C)c2)c1C` [3-(2-(3′,5′-tert-butyl-4′-hydroxyphenyl)-2-oxoethyl)-4-methyl-5-vinyl-thiazolium bromide], where the note is “at 0.3 mM”, the “Breaking Anti-AGE” value worked out at 32% and the “Breaking Anti-BSA” value worked out at 50%. Also, the “IC50 (mM) Anti-BSA” value (detection with anti-BSA antibody) is recorded as “ND/0/60%”.
Regarding `O=C(C[n+]1ccsc1)c1ccc(Br)cc1.[Br-]` [3-(2-(4^1-bromophenyl]-2-oxoethyl)-thiazolium bromide], under “at 30 mM”, the “Breaking Anti-AGE” value stood at 76% and the “Breaking Anti-BSA” value turned out to be 25%.
As a reminder, the IC50 is the midpoint of a concentration-inhibition curve. Higher therefore signals weaker potency in that assay. `CC(=O)C[n+]1ccsc1.[Cl-]` [3-(2-methyl-2-oxoethyl)thiazolium chloride] gave an IC50 (IC50 (mM) Anti-AGE, detection with anti-AGE antibody) of 0.83 mM. Half-maximal inhibition (IC50 (mM) Anti-BSA, detection with anti-BSA antibody) (IC50) required 0.75 mM. Besides, for the setting “concentration not given”, the “Breaking Anti-AGE” value was 56% and the “Breaking Anti-BSA” value came to 93%.
For the compound `CC(C)(C)C(=O)C[n+]1ccsc1.[Br-]` [3-(2-tert-butyl-2-oxoethyl)-thiazolium bromide], for the setting “at 10 mM”, the “Breaking Anti-AGE” value came to 28% and the “Breaking Anti-BSA” value is listed as 37%.
In the same order, the values of `Cc1c(CCO)sc[n+]1Cc1c(Cl)cccc1Cl.[Cl-]` [3-(2′,6′-dichlorobenzyl)-4-methyl-5-(2′-15 hydroxyethyl)-thiazolium chloride] are 6% and 27%.
The corresponding values for `Cc1c(CCO)sc[n+]1Cc1ccccc1[N+](=O)[O-].[Br-]` [3-(2′-nitrobenzyl)-4-methyl-5-(2′-hydroxyethyl)-thiazolium bromide] are 11% and 13%.
Regarding `COc1cccc(C[n+]2csc(CCO)c2C)c1.[Cl-]` [3-(3′-methoxybenzyl)-4-methyl-5-(2′-hydroxyethyl)-thiazolium chloride], under “at 10 mM”, the “Breaking Anti-AGE” value was 4% and 14%; the “Breaking Anti-BSA” value was 19% and 25%.
With `Cc1c(CCO)sc[n+]1Cc1ccccc1.[Cl-]` [3-benzyl-5-(2-hydroxyethyl)-4-methyl thiazolium chloride], for the setting “at 30 mM”, the “Breaking Anti-AGE” value is given as 65% and the “Breaking Anti-BSA” value is 61%.
